The target in one test is T1, CDK12 (Homo sapiens, UniProt Q9NYV4).
T1 construct: endogenous in cells; host or cells: CAL-120 human breast cancer cells (DSMZ ACC 459)
Briefly: CDK12 nuclear protein level: immunofluorescence/high content analysis in CAL-120 cells. To be noted: for DC50: CAL-120 cells, 24 h, nuclear CDK12 staining intensity, median, read-out: CDK12 degradation IF DC50 - [mol/l] (median); for (IC50 CDK12 high ATP) to (Degradation DC50 CDK12) ratio: ratio of IC50 CDK12 hATP (2 mM ATP) to DC50 CDK12 (IF, CAL-120). The format is cell-based. In short, it runs like this:
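Cells were exposed to compounds in dose-response for 24 h at 37 °C, then PFA-fixed, immunostained for CDK12 and counterstained with Hoechst before confocal imaging. Nuclear CDK12 intensity was normalized to DMSO and control. DC50 is the concentration giving 50% reduction of nuclear staining.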

For another test, the target named is T2, CDK2/CyclinE (Homo sapiens, UniProt P24941).
T2 construct: GST; purchased ProQinase GmbH (Freiburg, Germany); host or cells: insect cells (Sf9)
Briefly: CDK2/CycE kinase assay (TR-FRET). The format is biochemical. To be noted: 2 mM ATP (high ATP); median; read-out: CDK2/CyclinE, 2 mM ATP (high ATP) IC50 - [mol/l] (median). An excerpt: 2.4 CDK2/CycE Kinase Assay
CDK2/CycE-inhibitory activity of compounds of the present invention was quantified employing the CDK2/CycE TR-FRET assay as described in the following paragraphs.
Recombinant fusion proteins of GST and human CDK2 and of GST and human CycE, expressed in insect cells (Sf9) and purified by Glutathion-Sepharose affinity chromatography, were purchased from ProQinase GmbH (Freiburg, Germany). As substrate for the kinase reaction biotinylated peptide biotin-Ttds-YISPLKSPYKISEG (C-terminus in amid form) was used which can be purchased e.g. form the company JERINI peptide technologies (Berlin, Germany).
For the assay 50 nanoL of a 100 fold concentrated solution of the test compound in DMSO was pipetted into a black low volume 384 well microtiter plate or a black 1536 well microtiter plate (both Greiner Bio-One, Frickenhausen, Germany), 2 microL of a solution of CDK2/CycE in aqueous assay buffer [50 millimol/L Tris/HCl pH 8.0, 10 millimol/L MgCl2, 1.0 millimol/L dithiothreitol, 0.1 millimol/L sodium ortho-vanadate, 0.01% (v/v) Nonidet-P40 (Sigma)] were added and the mixture was incubated for 15 min at 22° C. to allow pre-binding of the test compounds to the enzyme before the start of the kinase reaction. Then the kinase reaction was started by the addition of 3 microL of a solution of adenosine-tri-phosphate (ATP, 3.33 millimol/L=>final conc. in the 5 microL assay volume is 2 millimol/L) and substrate (1.25 micromol/L=>final conc. in the 5 microL assay volume is 0.75 micromol/L) in assay buffer and the resulting mixture was incubated for a reaction time of 25 min at 22° C. The concentration of CDK2/CycE was adjusted depending of the activity of the enzyme lot and was chosen appropriate to have the assay in the linear range, typical concentrations were in the range of 10 ng/mL. The reaction was stopped by the addition of 3 microL of a solution of TR-FRET detection reagents (0.333 micromol/L streptavidine-XL665 [Cisbio Bioassays, Codolet, France] and 1.67 nanomol/L anti-RB(pSer807/pSer811)-antibody from BD Pharmingen [#558389] and 2 nanomol/L LANCE EU-W1024 labeled anti-mouse IgG antibody [Perkin-Elmer, product no. AD0077, as an alternative a Terbium-cryptate-labeled anti-mouse IgG antibody from Cisbio Bioassays can be used]) in an aqueous EDTA-solution (167 millimol/L EDTA, 0.2% (w/v) bovine serum albumin in 100 millimol/L HEPES pH 7.5).
The resulting mixture was incubated 1 h at 22° C. to allow the formation of complex between the phosphorylated biotinylated peptide and the detection reagents. Subsequently the amount of phosphorylated substrate was evaluated by measurement of the resonance energy transfer from the Eu-chelate to the streptavidine-XL. Therefore, the fluorescence emissions at 620 nm and 665 nm after excitation at 350 nm was measured in a TR-FRET reader, e.g. a Pherastar (BMG Labtechnologies, Offenburg, Germany) or a Viewlux (Perkin-Elmer). The ratio of the emissions at 665 nm and at […] was taken as the measure for the amount of phosphorylated substrate. The data were normalised (enzyme reaction without inhibitor=0% inhibition, all other assay components but no enzyme=100% inhibition).
For orientation: TR-FRET usually uses a lanthanide donor and a delayed reading to cut background.

T1 sequence (Q9NYV4 whole entry): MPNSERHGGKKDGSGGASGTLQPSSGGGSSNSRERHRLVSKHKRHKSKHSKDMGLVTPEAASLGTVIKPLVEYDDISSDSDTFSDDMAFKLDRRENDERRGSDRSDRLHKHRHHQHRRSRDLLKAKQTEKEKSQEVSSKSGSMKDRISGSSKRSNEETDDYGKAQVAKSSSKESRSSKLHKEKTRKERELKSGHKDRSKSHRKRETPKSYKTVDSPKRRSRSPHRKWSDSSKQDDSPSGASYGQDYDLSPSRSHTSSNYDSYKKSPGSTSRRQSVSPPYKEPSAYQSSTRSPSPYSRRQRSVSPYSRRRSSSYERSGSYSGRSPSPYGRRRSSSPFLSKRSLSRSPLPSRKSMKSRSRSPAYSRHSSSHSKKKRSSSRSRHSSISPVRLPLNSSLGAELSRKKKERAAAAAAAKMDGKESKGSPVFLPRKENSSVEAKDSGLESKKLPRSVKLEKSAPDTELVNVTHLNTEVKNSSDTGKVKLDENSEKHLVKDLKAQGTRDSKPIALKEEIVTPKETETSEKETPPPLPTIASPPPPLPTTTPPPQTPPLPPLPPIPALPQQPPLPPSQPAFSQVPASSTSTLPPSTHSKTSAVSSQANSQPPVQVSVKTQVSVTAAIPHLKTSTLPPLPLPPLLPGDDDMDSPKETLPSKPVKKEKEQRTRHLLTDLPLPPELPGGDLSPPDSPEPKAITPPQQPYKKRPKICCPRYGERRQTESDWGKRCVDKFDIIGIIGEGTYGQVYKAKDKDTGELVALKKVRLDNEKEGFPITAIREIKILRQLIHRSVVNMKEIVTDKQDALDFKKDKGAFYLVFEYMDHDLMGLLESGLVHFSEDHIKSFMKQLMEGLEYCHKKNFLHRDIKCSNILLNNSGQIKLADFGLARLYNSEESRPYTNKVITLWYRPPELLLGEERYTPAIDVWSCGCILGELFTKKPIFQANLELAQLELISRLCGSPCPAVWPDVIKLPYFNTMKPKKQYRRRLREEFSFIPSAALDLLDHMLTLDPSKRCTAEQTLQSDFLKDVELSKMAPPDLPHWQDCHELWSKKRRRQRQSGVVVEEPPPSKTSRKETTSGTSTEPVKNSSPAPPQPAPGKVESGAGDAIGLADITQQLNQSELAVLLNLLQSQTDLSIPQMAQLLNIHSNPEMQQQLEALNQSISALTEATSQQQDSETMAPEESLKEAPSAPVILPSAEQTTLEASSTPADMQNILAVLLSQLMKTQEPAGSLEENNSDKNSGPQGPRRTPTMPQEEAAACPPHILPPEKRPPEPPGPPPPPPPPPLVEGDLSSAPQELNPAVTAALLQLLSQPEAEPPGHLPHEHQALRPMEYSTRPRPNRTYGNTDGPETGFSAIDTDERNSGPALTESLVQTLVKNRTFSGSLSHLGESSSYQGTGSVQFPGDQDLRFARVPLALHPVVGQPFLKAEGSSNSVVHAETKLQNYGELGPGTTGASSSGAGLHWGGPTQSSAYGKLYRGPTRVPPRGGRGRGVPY
T1 sequence (O75909 whole entry partner): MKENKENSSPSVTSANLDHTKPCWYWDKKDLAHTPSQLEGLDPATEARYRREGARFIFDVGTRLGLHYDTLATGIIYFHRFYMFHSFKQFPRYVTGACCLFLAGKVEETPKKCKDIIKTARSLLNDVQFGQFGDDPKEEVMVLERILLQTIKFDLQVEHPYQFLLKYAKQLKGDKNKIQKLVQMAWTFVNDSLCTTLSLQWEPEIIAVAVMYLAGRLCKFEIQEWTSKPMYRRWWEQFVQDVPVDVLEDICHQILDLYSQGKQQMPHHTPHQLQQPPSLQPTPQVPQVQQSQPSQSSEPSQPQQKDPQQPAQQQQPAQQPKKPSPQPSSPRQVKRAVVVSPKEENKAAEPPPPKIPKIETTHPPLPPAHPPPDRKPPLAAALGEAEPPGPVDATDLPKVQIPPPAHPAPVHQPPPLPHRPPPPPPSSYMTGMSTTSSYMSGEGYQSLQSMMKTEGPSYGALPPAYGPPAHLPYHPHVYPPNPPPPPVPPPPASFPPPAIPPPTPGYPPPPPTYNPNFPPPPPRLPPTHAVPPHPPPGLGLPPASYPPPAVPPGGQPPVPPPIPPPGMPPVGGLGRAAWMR

With `c1ccc2[nH]c(CNc3nn(C4CCOCC4)c4nc(C5CC5)cnc34)nc2c1` [Example 16, N-[(1H-benzimidazol-2-yl)methyl]-6-cyclopropyl-1-(oxan-4-yl)-1H-pyrazolo[3,4-b]pyrazin-3-amine], on CDK12, the DC50 amounted to 84 nM and the “(IC50 CDK12 high ATP) to (Degradation DC50 CDK12) ratio” value is more than 238. Also, the IC50 at CDK2/CyclinE was more than 20000 nM.

In the case of `CN1CCC(n2nc(NCc3nc4cc(Cl)c(Cl)cc4[nH]3)c3ncc(C4CC4)nc32)CC1` [Example 19, 6-cyclopropyl-N-[(5,6-dichloro-1H-benzimidazol-2-yl)methyl]-1-(1-methylpiperidin-4-yl)-1H-pyrazolo[3,4-b]pyrazin-3-amine], at CDK12, the DC50 came out at 4.66 nM and the “(IC50 CDK12 high ATP) to (Degradation DC50 CDK12) ratio” value is reported as more than 4294. Moreover, at CDK2/CyclinE, the IC50 was more than 20000 nM.

For `CN1CCC(n2nc(NCc3nc4c(Br)cccc4[nH]3)c3ncc(C4CC4)nc32)CC1` [Example 20, N-[(4-bromo-1H-benzimidazol-2-yl)methyl]-6-cyclopropyl-1-(1-methylpiperidin-4-yl)-1H-pyrazolo[3,4-b]pyrazin-3-amine], on CDK12, the DC50 is 22.2 nM and the “(IC50 CDK12 high ATP) to (Degradation DC50 CDK12) ratio” value is recorded as more than 1050. The IC50 on CDK2/CyclinE is more than 20000 nM.

As to `Cc1c(Cl)ccc2[nH]c(CNc3nn(C4CCN(C)CC4)c4nc(C5CC5)cnc34)nc12` [Example 21, N-[(5-chloro-4-methyl-1H-benzimidazol-2-yl)methyl]-6-cyclopropyl-1-(1-methylpiperidin-4-yl)-1H-pyrazolo[3,4-b]pyrazin-3-amine], on CDK12, the DC50 is 28.7 nM and the “(IC50 CDK12 high ATP) to (Degradation DC50 CDK12) ratio” value is more than 697. For the same compound, the IC50 on CDK2/CyclinE was more than 20000 nM.

Consider `CN1CCC(n2nc(NCc3nc4cc(Cl)ccc4[nH]3)c3ncc(C4CC4)nc32)CC1` [Example 22, N-[(5-chloro-1H-benzimidazol-2-yl)methyl]-6-cyclopropyl-1-(1-methylpiperidin-4-yl)-1H-pyrazolo[3,4-b]pyrazin-3-amine], for which, at CDK12, the DC50 amounted to 11.8 nM and the “(IC50 CDK12 high ATP) to (Degradation DC50 CDK12) ratio” value is more than 1695. For the same compound, at CDK2/CyclinE, the IC50 is more than 20000 nM.

With `Fc1cccc2[nH]c(CNc3nn(C4CCOCC4)c4nc(C5CC5)cnc34)nc12` [Example 23, 6-cyclopropyl-N-[(4-fluoro-1H-benzimidazol-2-yl)methyl]-1-(oxan-4-yl)-1H-pyrazolo[3,4-b]pyrazin-3-amine], on CDK12, the DC50 was 31.7 nM and the “(IC50 CDK12 high ATP) to (Degradation DC50 CDK12) ratio” value worked out at 388. Besides, the IC50 on CDK2/CyclinE turned out to be 16400 nM.

In the case of `COc1cccc2[nH]c(CNc3nn(C4CCOCC4)c4nc(C5CC5)cnc34)nc12` [Example 24, 6-cyclopropyl-N-[(4-methoxy-1H-benzimidazol-2-yl)methyl]-1-(oxan-4-yl)-1H-pyrazolo[3,4-b]pyrazin-3-amine], on CDK12, the DC50 worked out at 12 nM and the “(IC50 CDK12 high ATP) to (Degradation DC50 CDK12) ratio” value came to 1614. For the same compound, the IC50 at CDK2/CyclinE turned out to be 17900 nM.

For `CN1CCC(n2nc(NCc3nc4cc(C(F)(F)F)ccc4[nH]3)c3ncc(C4CC4)nc32)CC1` [Example 25, 6-cyclopropyl-1-(1-methylpiperidin-4-yl)-N-{[5-(trifluoromethyl)-1H-benzimidazol-2-yl]methyl}-1H-pyrazolo[3,4-b]pyrazin-3-amine], on CDK12, the DC50 came to 8.43 nM and the “(IC50 CDK12 high ATP) to (Degradation DC50 CDK12) ratio” value amounted to 2193. The IC50 at CDK2/CyclinE was more than 20000 nM.

Consider `Cc1c(F)ccc2[nH]c(CNc3nn(C4CCN(C)CC4)c4nc(C5CC5)cnc34)nc12` [Example 26, 6-cyclopropyl-N-[(5-fluoro-4-methyl-1H-benzimidazol-2-yl)methyl]-1-(1-methylpiperidin-4-yl)-1H-pyrazolo[3,4-b]pyrazin-3-amine], for which, on CDK12, the DC50 amounted to 16 nM and the “(IC50 CDK12 high ATP) to (Degradation DC50 CDK12) ratio” value is more than 509. For the same compound, the IC50 at CDK2/CyclinE was more than 20000 nM.

Regarding `CN1CCC(n2nc(NCc3nc4cc(SC(F)(F)F)ccc4[nH]3)c3ncc(C4CC4)nc32)CC1` [Example 27, 6-cyclopropyl-1-(1-methylpiperidin-4-yl)-N-({5-[(trifluoromethyl)sulfanyl]-1H-benzimidazol-2-yl}methyl)-1H-pyrazolo[3,4-b]pyrazin-3-amine], on CDK12, the DC50 is 49.1 nM and the “(IC50 CDK12 high ATP) to (Degradation DC50 CDK12) ratio” value stood at 41. Further, at CDK2/CyclinE, the IC50 was more than 20000 nM.

On to `Cc1ccc2[nH]c(CNc3nn(C4CCN(C)CC4)c4nc(C5CC5)cnc34)nc2c1C` [Example 28, 6-cyclopropyl-N-[(4,5-dimethyl-1H-benzimidazol-2-yl)methyl]-1-(1-methylpiperidin-4-yl)-1H-pyrazolo[3,4-b]pyrazin-3-amine], for which, at CDK12, the DC50 is 10.6 nM and the “(IC50 CDK12 high ATP) to (Degradation DC50 CDK12) ratio” value is reported as more than 1880. Besides, at CDK2/CyclinE, the IC50 is more than 20000 nM.

Regarding `CN1CCC(n2nc(NCc3nc4cc(Cl)c(F)cc4[nH]3)c3ncc(C4CC4)nc32)CC1` [Example 29, N-[(5-chloro-6-fluoro-1H-benzimidazol-2-yl)methyl]-6-cyclopropyl-1-(1-methylpiperidin-4-yl)-1H-pyrazolo[3,4-b]pyrazin-3-amine], at CDK12, the DC50 is 17.5 nM and the “(IC50 CDK12 high ATP) to (Degradation DC50 CDK12) ratio” value is given as more than 1145. Besides, on CDK2/CyclinE, the IC50 was more than 20000 nM.

On to `CN1CCC(n2nc(NCc3nc4cc(F)c(F)cc4[nH]3)c3ncc(C4CC4)nc32)CC1` [Example 30, 6-cyclopropyl-N-[(5,6-difluoro-1H-benzimidazol-2-yl)methyl]-1-(1-methylpiperidin-4-yl)-1H-pyrazolo[3,4-b]pyrazin-3-amine], for which, on CDK12, the DC50 was 17.1 nM and the “(IC50 CDK12 high ATP) to (Degradation DC50 CDK12) ratio” value was more than 1376. Also, the IC50 at CDK2/CyclinE was more than 20000 nM.

Take `CN1CCC(n2nc(NCc3nc4c(Cl)c(F)ccc4[nH]3)c3ncc(C4CC4)nc32)CC1` [Example 31, N-[(4-chloro-5-fluoro-1H-benzimidazol-2-yl)methyl]-6-cyclopropyl-1-(1-methylpiperidin-4-yl)-1H-pyrazolo[3,4-b]pyrazin-3-amine]: at CDK12, the DC50 is 14.4 nM and the “(IC50 CDK12 high ATP) to (Degradation DC50 CDK12) ratio” value is reported as more than 1388. Also, the IC50 at CDK2/CyclinE is more than 20000 nM.

For the compound `Fc1ccc2[nH]c(CNc3nn(C4CCOCC4)c4nc(C5CC5)cnc34)nc2c1F` [Example 32, 6-cyclopropyl-N-[(4,5-difluoro-1H-benzimidazol-2-yl)methyl]-1-(oxan-4-yl)-1H-pyrazolo[3,4-b]pyrazin-3-amine], the DC50 on CDK12 came out at 11.5 nM. Also, the IC50 on CDK2/CyclinE is more than 20000 nM.

For the compound `Cc1cccc2[nH]c(CNc3nn(C4CCOCC4)c4nc(C5CC5)cnc34)nc12` [Example 33, 6-cyclopropyl-N-[(4-methyl-1H-benzimidazol-2-yl)methyl]-1-(oxan-4-yl)-1H-pyrazolo[3,4-b]pyrazin-3-amine], at CDK12, the DC50 is 8.65 nM and the “(IC50 CDK12 high ATP) to (Degradation DC50 CDK12) ratio” value is listed as more than 2312. The IC50 at CDK2/CyclinE was more than 20000 nM.

`FC1(F)CCC(n2nc(NCc3nc4ccccc4[nH]3)c3ncc(C4CC4)nc32)CC1` [Example 36, N-[(1H-benzimidazol-2-yl)methyl]-6-cyclopropyl-1-(4,4-difluorocyclohexyl)-1H-pyrazolo[3,4-b]pyrazin-3-amine]: at CDK12, the DC50 amounted to 162 nM and the “(IC50 CDK12 high ATP) to (Degradation DC50 CDK12) ratio” value is listed as more than 124. The IC50 at CDK2/CyclinE was more than 20000 nM.

The values are drawn from patent US20230192700A1, “PYRAZOLOPYRAZINES ACTING ON CANCERS VIA INHIBITION OF CDK12” (Bayer Aktiengesellschaft, priority 2020, published 2023).
